Measured values: article PMC9822051, “A Study on the Chemistry and Biological Activity of 26-Sulfur Analogs of Diosgenin: Synthesis of 26-Thiodiosgenin S-Mono- and Dioxides, and Their Alkyl Derivatives” (Molecules, 2022)
In brackets after ≈: the same amount, converted by molar mass. Several values for one entry are separate records, joined by “and”; a condition that tells them apart may be missing. Equal entries are not always repeated. Where two headings read alike, the source gives them in different places.

Columns and labels:
[1] = tested on: Escherichia coli ATCC 35218; assay: Antibacterial activity, broth microdilution (MIC/MBC); assay type: cell-based; conditions: E. coli ATCC 35218; for MIC: 37 °C, 24 h
Method: (§1) The antibacterial activity of tested compounds was assessed by monitoring the cell growth of Staphylococcus aureus 8325-4 and Escherichia coli ATCC 35218 using the broth microdilution method, conducted according to the National Committee for Clinical Laboratory Standards. First, compounds were dissolved in methanol and the solution was added to Mueller Hinton broth (MHB) for bacteria to give a final concentration of 2000 µg/mL. The samples were then serially two-fold diluted in bullion to obtain concentration ranging from 1000 to 0.12 μg/mL in 96-well microtiter plate with the final volumes of 100 μL. Next, 100 μL of bacteria suspension was injected into each well. The final bacteria cell concentration was 1 × 10^6 colony-forming units per ml (CFU/mL). The plates were incubated at 37 °C for 24 h. The MIC value was determined as the lowest concentration of an antibacterial agent that inhibited bacterial growth, as indicated by the absence of turbidity. The MBC value was determined as the lowest concentration of antibacterial agents for which no bacterial growth on the plates was observed.

[2] = tested on: Staphylococcus aureus 8325-4; assay: as above; assay type: cell-based; conditions: S. aureus 8325-4; for MIC: 37 °C, 24 h
Method: as §1

[3] = tested on: S. aureus 8325-4 membrane proteins (Trp^214 residues); assay: Trp fluorescence quenching of bacterial membrane proteins (Stern-Volmer); assay type: binding, Staphylococcus aureus; conditions: for Stern-Volmer constant KSV: compound 0.5–2.0 µM, PBS pH 7.4, λexc 295 nm, λem 350 nm; for quenching constant kq: kq = KSV/τ0
Description: (§2) Based on fluorescence analysis, the Stern-Volmer plots were drawn (Figure 5) using equation given below (Equation (1)). (1) F0/F=1+KSV[Q] where: F0 and F are the Trp fluorescence without and in the presence of quencher (studied compounds), KSV—Stern-Volmer constant, [Q]—concentration of the quencher.
(§3) In order to check whether studied compounds form complexes with bacterial cells proteins, the quenching constants (kq) have been calculated using equation below (Equation (2)) and are presented in Table 3. (2) kq=KSV/τ0 where: kq—quenching constant, KSV—Stern-Volmer constant, τ0—fluorescence lifetime of fluorophore molecules.
(§4) Bacteria strains: S. aureus and E. coli grown overnight at 37 °C in Mueller Hinton (MH) broth with shaking at 200 rpm. Next, bacteria suspensions were centrifuged (2300× g, 15 min) and resuspended in PBS after removing the supernatant. For experiments, bacteria suspensions (OD600 = 0.1 in C = 10 mM PBS buffer, pH = 7.4) have been used in the presence (concentration range 0.5–2.0 µM) and without the studied compounds. The measurements were performed in quartz cuvette (1 cm × 1 cm). Fluorescence was monitored at the λexc. = 295 nm and λem. = 350 nm from tryptophan (Trp^214) residues in bacterial membrane proteins. The studies were carried out using Perkin-Elmer LS-55B (Perkin-Elmer, Pontyclun, UK) spectrofluorometer.

[4] = tested on: E. coli ATCC 35218 membrane proteins (Trp^214 residues); assay: as above; assay type: binding, Escherichia coli; conditions: for Stern-Volmer constant KSV: compound 0.5–2.0 µM, PBS pH 7.4, λexc 295 nm, λem 350 nm; for quenching constant kq: kq = KSV/τ0
Description: as §2, §3, §4

[5] = Cytotoxicity, resazurin, 72 h; assay type: cell-based, human; conditions: human
Method: (§5) The studied compounds were evaluated for cytotoxicity in human cancer cell lines (cervical carcinoma HeLa, chronic myelogenous leukemia K562 and breast adenocarcinoma MCF7) and normal human retina cells RPE-1 (ca. 5.0 × 10^4 cells·mL^−1) after 72 h of treatment using resazurin (Merck/MilliporeSigma, St. Louis, MO, USA) as described earlier for Calcein AM dye.

[6] = tested on: lung cancer cell line A549; design: method as in PMID 33402081, PMID 23751199; conditions: cited from earlier work
[7] = tested on: breast adenocarcinoma MCF7; assay: Cytotoxicity, resazurin, 72 h; assay type: cell-based, human; conditions: MCF7, 72 h
Method: as §5

[8] = tested on: cervical carcinoma HeLa; assay: Cytotoxicity, resazurin, 72 h; assay type: cell-based, human
Method: as §5

[9] = tested on: chronic myelogenous leukemia K562; assay: Cytotoxicity, resazurin, 72 h; assay type: cell-based, human; conditions: K562, 72 h
Method: as §5

[10] = tested on: normal human retina cells RPE-1; assay: Cytotoxicity, resazurin, 72 h; assay type: cell-based; conditions: RPE-1 normal cells
Method: as §5

[11] = Escherichia coli, ATCC35218, read-out: MIC
[12] = Escherichia coli, ATCC35218, read-out: MBC
[13] = Staphylococcus aureus, 83254, read-out: MIC
[14] = Staphylococcus aureus, 83254, read-out: MBC
[15] = K562 chronic myelogenous leukemia cells, K562, 72 h
[16] = MCF7 breast adenocarcinoma cells, MCF7, 72 h
[17] = RPE-1 normal retina cells, RPE-1 normal cells

| Structure (SMILES) | MIC [1, 11] | MBC [1, 12] [µg/mL] | MIC [2, 13] | MBC [2, 14] [µg/mL] | Stern-Volmer constant KSV [3] | quenching constant kq [3] | Stern-Volmer constant KSV [4] | quenching constant kq [4] | IC50 at 72 h ([5]; HeLa cervical carcinoma cells) [µM] | IC50 at 72 h [5, 15] [µM] | IC50 at 72 h [5, 16] [µM] | IC50 at 72 h [5, 17] [µM] | melting point [°C] | other results |
| --- | --- | --- | --- | --- | --- | --- | --- | --- | --- | --- | --- | --- | --- | --- |
| CC1CCC2(OC3CC4C5CC=C6CC(O)CCC6(C)C5CCC4(C)C3C2C)S(=O)(=O)C1C (stereo not drawn) [α-Methylsulfone 11] | 125 µg/mL and 262 µM | 250 (≈ 524 µM) | 3.9 µg/mL and 8.2 µM | 7.8 (≈ 16.4 µM) | 3.442 ± 0.168 10^4 M^−1 | 6.84 ± 0.34 10^12 M^−1s^−1 | 2.470 ± 0.101 10^4 M^−1 | 4.94 ± 0.17 10^12 M^−1s^−1 | 92.3 | > 50 | > 50 | > 50 | 225 to 227 | – |
| CC1CCC2(OC3CC4C5CC=C6CC(O)CCC6(C)C5CCC4(C)C3C2C)SC1 (stereo not drawn) [26-Thiodiosgenin (3), 26-thiodiosgenin] | 62.5 µg/mL and 145 µM | 125 (≈ 290 µM) | 1.95 µg/mL and 4.5 µM | 3.9 (≈ 9.06 µM) | 8.322 ± 0.142 10^4 M^−1 | 16.62 ± 0.23 10^12 M^−1s^−1 | 5.091 ± 0.152 10^4 M^−1 | 10.02 ± 0.28 10^12 M^−1s^−1 | > 50 | > 50 | > 50 | > 50 | – | MBC [1]: 125 µg/mL (≈ 290 µM); MIC [1]: 62.5 µg/mL (≈ 145 µM); MBC [2]: 3.9 µg/mL (≈ 9.06 µM); MIC [2]: 1.95 µg/mL (≈ 4.53 µM) |
| CC1CCC2(OC3CC4C5CC=C6CC(O)CCC6(C)C5CCC4(C)C3C2C)[S+]([O-])C1(C)C (stereo not drawn) [Dimethylsulfoxide 10] | – | – | – | – | – | – | – | – | 32.2 ± 1.7 | > 50 | > 50 | > 50 | – | – |
| CCC1C(C)CCC2(OC3CC4C5CC=C6CC(O)CCC6(C)C5CCC4(C)C3C2C)S1(=O)=O (stereo not drawn) [26-Ethylsulfone 12] | – | – | – | – | – | – | – | – | 44.1 ± 0.1 | > 50 | > 50 | > 50 | 210 to 212 | – |
| C[C@@H]1CC[C@@]2(OC1)O[C@H]1C[C@H]3[C@@H]4CC=C5C[C@@H](O)CC[C@]5(C)[C@H]4CC[C@]3(C)[C@H]1[C@@H]2C [Diosgenin (1), diosgenin] | 250 µg/mL and 603 µM | 500 (≈ 1210 µM) | 3.9 µg/mL and 9.4 µM | 15.6 (≈ 37.7 µM) | 5.441 ± 0.131 10^4 M^−1 | 10.93 ± 0.27 10^12 M^−1s^−1 | 3.384 ± 0.165 10^4 M^−1 | 6.76 ± 0.35 10^12 M^−1s^−1 | – | – | – | – | – | MBC [1]: 500 µg/mL (≈ 1210 µM); MIC [1]: 250 µg/mL (≈ 603 µM); MBC [2]: 15.615 µg/mL (≈ 37.7 µM); MIC [2]: 3.9 µg/mL (≈ 9.41 µM); IC50 at 72 h ([5]; HeLa): > 50 µM; IC50 at 72 h ([5]; RPE-1 normal cells): > 50 µM; IC50 at 72 h ([5]; K562, 72 h): > 50 µM; IC50 at 72 h ([5]; MCF7, 72 h): > 50 µM |
| CC1CCC2(OC3CC4C5CC6OC67CC(O)CCC7(C)C5CCC4(C)C3C2C)S(=O)(=O)C1 (stereo not drawn) [Epoxysulfone 9] | – | – | – | – | – | – | – | – | > 50 | > 50 | > 50 | > 50 | – | – |
| CC1CCC2(OC3CC4C5CC=C6CC(O)CCC6(C)C5CCC4(C)C3C2C)[S+]([O-])C1 (stereo not drawn) [Sulfoxide 6] | 125 µg/mL and 280 µM | 250 (≈ 560 µM) | 3.9 µg/mL and 8.7 µM | 7.8 (≈ 17.5 µM) | 4.051 ± 0.170 10^4 M^−1 | 8.14 ± 0.35 10^12 M^−1s^−1 | 1.456 ± 0.201 10^4 M^−1 | 2.92 ± 0.36 10^12 M^−1s^−1 | > 50 | > 50 | > 50 | > 50 | 143 to 146 | – |
| CC1CCC2(OC3CC4C5CC=C6CC(O)CCC6(C)C5CCC4(C)C3C2C)S(=O)(=O)C1 (stereo not drawn) [Sulfone 8] | 125 µg/mL and 270 µM | 250 (≈ 540 µM) | 3.9 µg/mL and 8.4 µM | 7.8 (≈ 16.9 µM) | 2.915 ± 0.175 10^4 M^−1 | 5.82 ± 0.31 10^12 M^−1s^−1 | 2.962 ± 0.105 10^4 M^−1 | 5.92 ± 0.16 10^12 M^−1s^−1 | > 50 | > 50 | > 50 | > 50 | 205 to 207 | – |
| C[C@@H]1CC[C@@]2(OC1)O[C@H]1C[C@H]3[C@@H]4CC=C5C[C@@H](O[C@@H]6O[C@H](CO)[C@@H](O[C@@H]7O[C@@H](C)[C@H](O)[C@@H](O)[C@H]7O)[C@H](O)[C@H]6O[C@@H]6O[C@@H](C)[C@H](O)[C@@H](O)[C@H]6O)CC[C@]5(C)[C@H]4CC[C@]3(C)[C@H]1[C@@H]2C [dioscine] | – | – | – | – | – | – | – | – | – | – | – | – | – | IC50 [6]: 4.02 µM |
| CC1CCC2(CC1)O[C@H]1C[C@H]3[C@@H]4CC[C@H]5C[C@@H](O)CC[C@]5(C)[C@H]4CC[C@]3(C)[C@H]1[C@@H]2C (stereo partly drawn) [Carbaanalog 5] | 500 µg/mL and 1210 µM | 1000 (≈ 2410 µM) | 7.8 µg/mL and 18.9 µM | 31.2 (≈ 75.4 µM) | 1.258 ± 0.189 10^4 M^−1 | 2.52 ± 0.32 10^12 M^−1s^−1 | 2.021 ± 0.198 10^4 M^−1 | 4.04 ± 0.45 10^12 M^−1s^−1 | 38.2 ± 0.8 | > 50 | > 50 | > 50 | – | MIC [1]: 500 µg/mL (≈ 1210 µM); MIC [2]: 7.8 µg/mL (≈ 18.8 µM) |
| C[C@@H]1CC[C@]2(O[C@H]3C[C@H]4[C@@H]5CC=C6C[C@@H](O[C@@H]7O[C@H](CO)[C@@H](O[C@@H]8O[C@@H](C)[C@H](O)[C@@H](O)[C@H]8O)[C@H](O)[C@H]7O[C@@H]7O[C@@H](C)[C@H](O)[C@@H](O)[C@H]7O)CC[C@]6(C)[C@H]5CC[C@]4(C)[C@H]3[C@@H]2C)SC1 [26-thiodioscine] | – | – | – | – | – | – | – | – | – | – | – | – | – | IC50 [6]: 3.72 µM |
| CC1CCC2(OC3CC4C5CC=C6CC(O)CCC6(C)C5CCC4(C)C3C2C)[S+]([O-])C1 (stereo not drawn) [Sulfoxide 7] | – | – | – | – | – | – | – | – | – | – | – | – | 165 to 166 | IC50 [7]: > 50 µM; IC50 [8]: 34.3 ± 3 µM; IC50 [9]: > 50 µM; IC50 [10]: > 50 µM |
